Source: the supplement of paper PMC10307832

compound: COc1cc(-c2nn([C@H]3CC[C@H](N4CCN(C(C)=O)CC4)CC3)c3ncnc(N)c23)ccc1NC(=O)c1cc2ccccc2n1C + Cc1cc(Nc2cc(N3CCN(C)CC3)nc(Sc3ccc(NC(=O)C4CC4)cc3)n2)n[nH]1 [Tozasertib] (partner 0.1 µM); assay: relative viability (nuclei count vs DMSO), 5 days (fraction); higher = more cells survive; conditions: first compound 0.0128 µM
Summary of the method: (§1)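 Cells from lung cancer lines were seeded into 1536-well plates and, one day later, dosed by pin tool. Treatments were either a single drug or a fixed dose of an anchor drug with five library-drug doses (not always all listed) in √10 steps. After 5 days, nuclei were stained in a one-step fixation (final 0.05% Triton X-100, 1% formaldehyde, 1 ug/ml Hoechst) and counted on 4× images, and relative viability is the treated-to-vehicle nuclei ratio, as the median of duplicate plates.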

| Cell Line | relative viability |
| --- | --- |
| NCI-H2405 | 0.741 |
| HOP-62 | 0.382 |
| NCI-H522 | 0.614 |
| LU99A | 0.281 |
| BEN | 0.56 |
| HARA | 0.11 |
| SW 900 | 0.665 |
| NCI-H322M | 0.509 |
| LCLC-97TM1 | 0.275 |
| A-427 | 0.221 |
| NCI-H441 | 0.743 |
| NCI-H1734 | 0.293 |
| NCI-H460 | 0.47 |
| NCI-H2347 | 0.475 |
| NCI-H1395 | 0.77 |
| 201T | 1 |

| Cell Line | relative viability |
| --- | --- |
| NCI-H1915 | 0.443 |
| HCC-827 | 0.417 |
| LXF-289 | 0.219 |
| NCI-H23 | 0.359 |
| NCI-H647 | 0.219 |
| CAL-12T | 0.29 |
| NCI-H1651 | 0.616 |
| EPLC-272H | 0.38 |
| NCI-H1355 | 0.541 |
| NCI-H3122 | 0.396 |
| NCI-H1437 | 0.393 |
| NCI-H1755 | 0.617 |
| HCC-15 | 0.332 |
| NCI-H1793 | 0.367 |
| PC-14 | 0.562 |

same assay, conditions: first compound 0.04048 µM

| Cell Line | relative viability |
| --- | --- |
| NCI-H2405 | 0.601 |
| HOP-62 | 0.41 |
| NCI-H522 | 0.59 |
| LU99A | 0.28 |
| BEN | 0.569 |
| HARA | 0.0748 |
| SW 900 | 0.539 |
| NCI-H322M | 0.472 |
| LCLC-97TM1 | 0.252 |
| NCI-H441 | 0.734 |
| NCI-H1734 | 0.234 |
| NCI-H460 | 0.113 |
| NCI-H1395 | 0.81 |
| 201T | 0.949 |
| NCI-H1915 | 0.44 |
| HCC-827 | 0.416 |
| LXF-289 | 0.217 |
| NCI-H23 | 0.444 |
| NCI-H647 | 0.262 |
| CAL-12T | 0.275 |
| NCI-H1651 | 0.769 |
| NCI-H1355 | 0.551 |
| NCI-H3122 | 0.342 |
| NCI-H1437 | 0.437 |
| NCI-H1755 | 0.604 |
| HCC-15 | 0.473 |
| NCI-H1793 | 0.343 |
| PC-14 | 0.688 |

same assay, conditions: first compound 0.128 µM

| Cell Line | relative viability |
| --- | --- |
| NCI-H2405 | 0.656 |
| HOP-62 | 0.346 |
| NCI-H522 | 0.566 |
| LU99A | 0.274 |
| BEN | 0.518 |
| HARA | 0.101 |
| SW 900 | 0.402 |
| NCI-H322M | 0.445 |
| LCLC-97TM1 | 0.201 |
| A-427 | 0.222 |
| NCI-H441 | 0.565 |
| NCI-H1734 | 0.253 |
| NCI-H460 | 0.278 |
| NCI-H2347 | 0.486 |
| NCI-H1395 | 0.714 |
| 201T | 0.854 |

| Cell Line | relative viability |
| --- | --- |
| NCI-H1915 | 0.384 |
| HCC-827 | 0.392 |
| LXF-289 | 0.17 |
| NCI-H23 | 0.309 |
| NCI-H647 | 0.194 |
| CAL-12T | 0.221 |
| NCI-H1651 | 0.635 |
| EPLC-272H | 0.235 |
| NCI-H1355 | 0.497 |
| NCI-H3122 | 0.343 |
| NCI-H1437 | 0.387 |
| NCI-H1755 | 0.534 |
| HCC-15 | 0.331 |
| NCI-H1793 | 0.228 |
| PC-14 | 0.559 |

same assay, conditions: first compound 1.28 µM

| Cell Line | relative viability |
| --- | --- |
| NCI-H2405 | 0.391 |
| HOP-62 | 0.368 |
| NCI-H522 | 0.445 |
| LU99A | 0.252 |
| BEN | 0.432 |
| HARA | 0.0842 |
| SW 900 | 0.343 |
| NCI-H322M | 0.341 |
| LCLC-97TM1 | 0.253 |
| A-427 | 0.185 |
| NCI-H441 | 0.578 |
| NCI-H1734 | 0.201 |
| NCI-H460 | 0.0922 |
| NCI-H2347 | 0.42 |
| NCI-H1395 | 0.561 |
| 201T | 0.523 |

| Cell Line | relative viability |
| --- | --- |
| NCI-H1915 | 0.317 |
| HCC-827 | 0.374 |
| LXF-289 | 0.0946 |
| NCI-H23 | 0.266 |
| NCI-H647 | 0.141 |
| CAL-12T | 0.178 |
| NCI-H1651 | 0.37 |
| EPLC-272H | 0.19 |
| NCI-H1355 | 0.28 |
| NCI-H3122 | 0.454 |
| NCI-H1437 | 0.277 |
| NCI-H1755 | 0.546 |
| HCC-15 | 0.247 |
| NCI-H1793 | 0.126 |
| PC-14 | 0.636 |

compound: CO[C@@H]1[C@H](N(C)C(=O)c2ccccc2)C[C@H]2O[C@]1(C)n1c3ccccc3c3c4c(c5c6ccccc6n2c5c31)C(=O)NC4 [Midostaurin] + NC(=O)Nc1cc(-c2cccc(F)c2)sc1C(=O)N[C@H]1CCCNC1 [AZD7762] (partner 0.2 µM); assay: as above; conditions: first compound 0.01 µM
Summary of the method: as §1

| Cell Line | relative viability |
| --- | --- |
| NCI-H2405 | 0.682 |
| HOP-62 | 0.527 |
| NCI-H522 | 0.86 |
| LU99A | 0.29 |
| BEN | 0.743 |
| HARA | 0.301 |
| SW 900 | 0.755 |
| NCI-H322M | 0.504 |
| LCLC-97TM1 | 0.169 |
| A-427 | 0.742 |
| NCI-H441 | 1.15 |
| NCI-H1734 | 0.498 |
| NCI-H460 | 0.678 |
| NCI-H2347 | 0.799 |
| NCI-H1395 | 0.407 |
| 201T | 0.509 |

| Cell Line | relative viability |
| --- | --- |
| NCI-H1915 | 0.654 |
| HCC-827 | 0.246 |
| LXF-289 | 1.14 |
| NCI-H23 | 0.215 |
| NCI-H647 | 0.576 |
| CAL-12T | 0.608 |
| NCI-H1651 | 0.455 |
| EPLC-272H | 0.208 |
| NCI-H1355 | 0.703 |
| NCI-H3122 | 0.981 |
| NCI-H1437 | 1.14 |
| NCI-H1755 | 0.492 |
| HCC-15 | 1.16 |
| NCI-H1793 | 0.395 |
| PC-14 | 0.33 |

same assay, conditions: first compound 0.03162 µM

| Cell Line | relative viability |
| --- | --- |
| NCI-H2405 | 0.804 |
